Laboratory results: ChEMBL document CHEMBL6153174, “Design and Synthesis of Novel Deazapurine DNMT 1 Inhibitors with In Vivo Efficacy in DLBCL” (J Med Chem, 2025)
The source made the active and inactive calls. No cut-off for these calls is given here.

Columns and labels:
[1] = system: TMD8; assay: Induction of cell cycle arrest in human TMD8 cells assessed as accumulation of cells at G0-G1 phase at 0.25 uM incubated for 24 hrs by PI staining based flow cytometry analysis (reference value: 40.7%); format: functional
[2] = molecular target: T1, DNA (cytosine-5)-methyltransferase 1 (Homo sapiens, UniProt P26358); assay: Inhibition of DNMT1 in human DOHH-2 cells assessed as inhibition of H3K9 methylation level at 1 uM incubated for 48 hrs by Western blot analysis; format: cell-based
T1 sequence (P26358 whole entry): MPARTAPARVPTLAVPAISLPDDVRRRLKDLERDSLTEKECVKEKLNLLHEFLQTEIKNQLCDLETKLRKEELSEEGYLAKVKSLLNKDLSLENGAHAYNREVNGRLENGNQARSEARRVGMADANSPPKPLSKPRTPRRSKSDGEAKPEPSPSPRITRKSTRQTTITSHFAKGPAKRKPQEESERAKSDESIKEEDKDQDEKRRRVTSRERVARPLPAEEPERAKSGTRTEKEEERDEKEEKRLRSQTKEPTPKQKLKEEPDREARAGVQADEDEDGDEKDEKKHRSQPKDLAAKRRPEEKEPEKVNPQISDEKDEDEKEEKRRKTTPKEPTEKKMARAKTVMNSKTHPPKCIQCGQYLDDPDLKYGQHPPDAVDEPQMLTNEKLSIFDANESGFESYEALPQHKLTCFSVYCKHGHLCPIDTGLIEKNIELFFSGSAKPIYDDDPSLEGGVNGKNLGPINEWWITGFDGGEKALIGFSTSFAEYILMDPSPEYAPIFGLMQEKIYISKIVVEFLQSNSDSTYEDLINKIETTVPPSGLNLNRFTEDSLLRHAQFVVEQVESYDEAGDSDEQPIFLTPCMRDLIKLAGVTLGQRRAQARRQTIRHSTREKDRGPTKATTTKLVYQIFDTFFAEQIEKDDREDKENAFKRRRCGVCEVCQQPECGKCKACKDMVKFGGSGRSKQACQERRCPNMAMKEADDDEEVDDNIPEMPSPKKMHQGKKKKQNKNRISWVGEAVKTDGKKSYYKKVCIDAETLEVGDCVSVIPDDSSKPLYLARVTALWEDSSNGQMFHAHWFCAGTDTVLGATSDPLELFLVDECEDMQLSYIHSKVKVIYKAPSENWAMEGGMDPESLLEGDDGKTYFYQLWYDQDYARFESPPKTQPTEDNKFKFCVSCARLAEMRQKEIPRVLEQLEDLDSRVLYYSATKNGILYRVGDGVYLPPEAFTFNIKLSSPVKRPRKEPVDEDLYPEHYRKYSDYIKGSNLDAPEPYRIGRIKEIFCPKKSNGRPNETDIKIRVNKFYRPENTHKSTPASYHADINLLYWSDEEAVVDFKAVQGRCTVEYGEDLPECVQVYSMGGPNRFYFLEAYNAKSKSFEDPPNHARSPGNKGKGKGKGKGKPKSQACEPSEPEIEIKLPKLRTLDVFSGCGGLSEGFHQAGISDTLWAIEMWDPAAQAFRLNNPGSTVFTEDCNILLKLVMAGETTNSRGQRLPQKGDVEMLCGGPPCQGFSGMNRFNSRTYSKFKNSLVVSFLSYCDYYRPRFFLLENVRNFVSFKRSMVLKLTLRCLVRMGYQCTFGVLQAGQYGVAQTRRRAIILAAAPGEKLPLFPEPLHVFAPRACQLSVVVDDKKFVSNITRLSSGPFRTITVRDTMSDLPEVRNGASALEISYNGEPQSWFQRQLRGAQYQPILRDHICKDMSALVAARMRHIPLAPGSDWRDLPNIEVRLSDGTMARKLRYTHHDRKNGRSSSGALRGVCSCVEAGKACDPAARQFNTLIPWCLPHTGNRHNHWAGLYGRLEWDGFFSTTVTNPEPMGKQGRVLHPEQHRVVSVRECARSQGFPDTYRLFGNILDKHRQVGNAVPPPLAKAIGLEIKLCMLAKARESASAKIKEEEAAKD

[3] = system: TMD8; assay: Induction of cell cycle arrest in human TMD8 cells assessed as accumulation of cells at S phase at 1.0 uM incubated for 24 hrs by PI staining based flow cytometry analysis (reference value: 39.0%); format: functional
[4] = system: HT-29; assay: Antiproliferative activity against human HT-29 cells assessed as inhibition of cell viability measured after 72 hrs by MTT assay; format: functional, cell-based; conditions: HT-29, 72 h
[5] = molecular target: T1, DNA (cytosine-5)-methyltransferase 1; assay: Inhibition of DNMT1 (unknown origin) preincubated for 15 mins followed by substrate and [3H-SAM] addition and measured after 60 mins by microbeta analysis
[6] = Terminal elimination half life in Sprague-Dawley rat at 10 mg/kg, po measured upto 24 hrs by LC/MS/MS analysis; format: ADME, organism-based; conditions: in vivo, read-out: beta t1/2 (converted)
[7] = Antitumor activity against human TMD8 cells harbouring TP53 mutant xenografted in mouse model assessed as body weight change at 10 mg/kg, iv administered three times a week relative to control; format: functional
[8] = Subacute toxicity in Balb/C mouse assessed as effect on spleen at 30 mg/kg, iv administered three times in a week for 2 weeks; format: organism-based; conditions: in vivo, 336 h
[9] = Antiproliferative activity against human NK-YS cells assessed as inhibition of cell viability measured after 72 hrs by MTT assay; format: functional, cell-based
[10] = system: DOHH-2; assay: Induction of apoptosis in human DOHH-2 cells assessed as late apoptotic cells at 2.5 uM measured after 48 hrs by annexin-V/FITC and PI staining based flow cytometry analysis (reference value: 3.66%); format: functional
[11] = system: DOHH-2; assay: Induction of apoptosis in human DOHH-2 cells assessed as late apoptotic cells measured after 48 hrs by annexin-V/FITC and PI staining based flow cytometry analysis; format: functional, cell-based; conditions: dose 0.25-5 µM
[12] = system: DOHH-2; assay: Induction of apoptosis in human DOHH-2 cells assessed as late apoptotic cells at 5 uM measured after 48 hrs by annexin-V/FITC and PI staining based flow cytometry analysis (reference value: 3.66%); format: functional
[13] = system: TMD8; assay: Induction of apoptosis in human TMD8 cells assessed as early apoptotic cells at 1 uM measured after 48 hrs by annexin-V/FITC and PI staining based flow cytometry analysis (reference value: 9.15%); format: functional
[14] = system: DOHH-2; assay: Induction of apoptosis in human DOHH-2 cells assessed as early apoptotic cells at 5 uM measured after 48 hrs by annexin-V/FITC and PI staining based flow cytometry analysis (reference value: 5.69%); format: functional
[15] = system: TMD8; assay: Induction of cell cycle arrest in human TMD8 cells assessed as accumulation of cells at G0-G1 phase at 1.0 uM incubated for 24 hrs by PI staining based flow cytometry analysis (reference value: 40.7%); format: functional
[16] = AUC (0 to t) in Sprague-Dawley rat at 10 mg/kg, iv measured upto 24 hrs by LC/MS/MS analysis; format: ADME, organism-based; conditions: Sprague-Dawley, in vivo
[17] = Subacute toxicity in Balb/C mouse assessed as change in body weight at 10 to 30 mg/kg, iv administered three times in a week for 2 weeks; format: organism-based; conditions: in vivo, 336 h, dose 10-30 mg/kg
[18] = Upregulation of FAS mRNA level in human DOHH-2 cells assessed as fold change at 300 nM measured after 6 days by PCR analysis; format: functional; conditions: time 6 day
[19] = Downregulation of BAX methylation level in human DOHH-2 cells at 100 nM measured after 6 days by PCR analysis relative to control; format: functional; conditions: time 6 day
[20] = system: Jurkat; assay: Antiproliferative activity against human Jurkat cells assessed as inhibition of cell viability measured after 72 hrs by MTT assay; format: functional, cell-based
[21] = Apparent clearance during terminal phase in Sprague-Dawley rat at 10 mg/kg, po measured upto 24 hrs by LC/MS/MS analysis; format: ADME, organism-based; conditions: in vivo, read-out: CLz/F (converted)
[22] = Subacute toxicity in Balb/C mouse assessed as effect on hematocrit at 30 mg/kg, iv administered three times in a week for 2 weeks; format: organism-based; conditions: in vivo, 336 h
[23] = system: DOHH-2; assay: Induction of cell cycle arrest in human DOHH-2 cells assessed as accumulation of cells at G0-G1 phase at 0.5 uM incubated for 24 hrs by PI staining based flow cytometry analysis (reference value: 27.1%); format: functional
[24] = system: HeLa; assay: Antiproliferative activity against human HeLa cells assessed as inhibition of cell viability measured after 72 hrs by MTT assay; format: functional, cell-based
[25] = system: TMD8; assay: Antiproliferative activity against human TMD8 cells assessed as inhibition of cell viability measured after 72 hrs by MTT assay; format: functional, cell-based; conditions: TMD8, 72 h
[26] = system: DOHH-2; assay: Induction of cell cycle arrest in human DOHH-2 cells assessed as accumulation of cells at G2-M phase at 1.0 uM incubated for 24 hrs by PI staining based flow cytometry analysis (reference value: 27.8%); format: functional
[27] = Antitumor activity against human TMD8 cells harbouring TP53 mutant xenografted in mouse model assessed as body weight change at 10 mg/kg, iv administered three times a week in presence of chidamide relative to control; format: functional
[28] = system: DOHH-2; assay: Induction of cell cycle arrest in human DOHH-2 cells assessed as accumulation of cells at G2/M phase incubated for 24 hrs by PI staining based flow cytometry analysis; format: functional; conditions: dose 0.25-1 µM
[29] = Subacute toxicity in Balb/C mouse assessed as effect on hemoglobin at 30 mg/kg, iv administered three times in a week for 2 weeks; format: organism-based; conditions: in vivo, 336 h
[30] = Subacute toxicity in Balb/C mouse assessed as effect on peripheral blood at 10 mg/kg, iv administered three times in a week for 2 weeks; format: organism-based; conditions: in vivo, 336 h
[31] = Subacute toxicity in Balb/C mouse assessed as effect on liver at 30 mg/kg, iv administered three times in a week for 2 weeks; format: organism-based; conditions: in vivo, 336 h
[32] = system: DOHH-2; assay: Induction of apoptosis in human DOHH-2 cells assessed as late apoptotic cells at 1 uM measured after 48 hrs by annexin-V/FITC and PI staining based flow cytometry analysis (reference value: 3.66%); format: functional
[33] = system: DOHH-2; assay: Induction of cell cycle arrest in human DOHH-2 cells assessed as accumulation of cells at S phase at 0.25 uM incubated for 24 hrs by PI staining based flow cytometry analysis (reference value: 40.7%); format: functional
[34] = molecular target: DNA (cytosine-5)-methyltransferase 3A (Homo sapiens, UniProt Q9Y6K1); assay: Inhibition of DNMT3A (unknown origin) preincubated for 15 mins followed by substrate and [3H-SAM] addition and measured after 60 mins by microbeta analysis
DNA (cytosine-5)-methyltransferase 3A, sequence (Q9Y6K1 whole entry, looked up): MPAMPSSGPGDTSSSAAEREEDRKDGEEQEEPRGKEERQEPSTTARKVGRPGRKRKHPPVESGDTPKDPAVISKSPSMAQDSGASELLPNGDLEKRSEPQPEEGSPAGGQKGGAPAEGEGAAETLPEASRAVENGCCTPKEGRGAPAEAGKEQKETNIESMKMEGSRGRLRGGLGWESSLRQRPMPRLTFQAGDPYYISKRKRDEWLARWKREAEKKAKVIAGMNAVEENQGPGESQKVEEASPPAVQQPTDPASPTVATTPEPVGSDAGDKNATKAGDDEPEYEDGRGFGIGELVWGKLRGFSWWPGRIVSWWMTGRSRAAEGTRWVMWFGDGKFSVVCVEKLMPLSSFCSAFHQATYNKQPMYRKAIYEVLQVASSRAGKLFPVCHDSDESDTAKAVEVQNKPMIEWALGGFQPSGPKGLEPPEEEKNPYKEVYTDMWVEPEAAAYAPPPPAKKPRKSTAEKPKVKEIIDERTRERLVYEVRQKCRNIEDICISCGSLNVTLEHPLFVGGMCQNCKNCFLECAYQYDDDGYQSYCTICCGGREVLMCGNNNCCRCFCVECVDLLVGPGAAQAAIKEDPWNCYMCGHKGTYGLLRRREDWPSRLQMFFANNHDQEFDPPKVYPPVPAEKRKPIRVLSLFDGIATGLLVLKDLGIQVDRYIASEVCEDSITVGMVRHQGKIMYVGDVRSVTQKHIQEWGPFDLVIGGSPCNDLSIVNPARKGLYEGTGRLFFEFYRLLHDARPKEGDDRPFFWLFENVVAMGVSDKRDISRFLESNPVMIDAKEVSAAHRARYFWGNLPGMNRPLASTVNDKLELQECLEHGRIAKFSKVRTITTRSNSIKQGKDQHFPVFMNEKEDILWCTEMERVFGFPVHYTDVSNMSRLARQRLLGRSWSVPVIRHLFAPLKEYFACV

[35] = Subacute toxicity in Balb/C mouse assessed as effect on kidney at 30 mg/kg, iv administered three times in a week for 2 weeks; format: organism-based; conditions: in vivo, 336 h
[36] = system: RPMI-8226; assay: Antiproliferative activity against human RPMI-8226 cells assessed as inhibition of cell viability measured after 72 hrs by MTT assay; format: functional, cell-based; conditions: RPMI-8226, 72 h

- inhibition [2]: Active
- IC50 [4]: 1060 nM
- IC50 [5]: 2420 nM
- half-life [6]: 21.9 h
- AUC(0-t) at 24 h [16]: 1010 ng·h/mL
- IC50 [20]: 570 nM
- CL/F [21]: 322 mL/min/kg
- IC50 [24]: 3020 nM
- IC50 [34]: 14400 nM
- IC50 [36]: 780 nM
SMILES: CN1CCC(Nc2nc(-c3ccnc(F)c3)nc3c2ccn3CCCN2CCCC2)CC1
- Activity [1]: 37.9%
- Activity [3]: 29.3%
- Activity [7]: -0.9%
- Activity [8]: Non-toxic
- IC50 [9]: 770 nM
- Activity [10]: 23.5%
- Activity [11]: Dose-dependent-effect
- Activity [12]: 34.7%
- Activity [13]: 15.7%
- Activity [14]: 44.7%
- Activity [15]: 32.5%
- Activity [17]: Non-toxic
- fold change (FC) [18]: 3.05
- Activity [19]: 55.2%
- Activity [22]: Non-toxic
- Activity [23]: 39.7%
- IC50 [25]: 500 nM
- Activity [26]: 32%
- Activity [27]: -1.5%
- Activity [28]: Dose-dependent-effect
- Activity [29]: Non-toxic
- Activity [30]: Non-toxic
- Activity [31]: Non-toxic
- Activity [32]: 13.6%
- Activity [33]: 37.3%
- Activity [35]: Non-toxic
